Test system: mechanical allodynia in spinal nerve ligated rats
Assay: Determination of analgesic effect: mechanical allodynia (von Frey) after L5/L6 spinal nerve ligation
Conditions: oral, in PEG400, 60 minutes before von Frey testing; percentage of maximal protective effect relative to vehicle; male Sprague Dawley rats
Text: Male Sprague Dawley rats (80-100 g) were purchased from Charles River (Portage, Mich.). Prior to surgery, animals were group-housed and maintained in a temperature regulated environment (lights on between 7:00 a.m. and 8:00 p.m.). Following nerve ligation surgery, animals were group housed. Two weeks after surgery, experimentation began. Rats had access to food and water ad libitum.
Briefly, an incision was made on the dorsal portion of the hip and the muscle was blunt dissected to reveal the spinal processes. The L6 transverse process was removed, and the left L5 and L6 spinal nerves were tightly ligated with a 5.0 braided silk suture. The wound was cleaned, the membrane sewn with a 4.0 dissolvable Vicryl suture and the skin closed with wound clips.
For the assessment of neuropathic pain, mechanical allodynia in the affected paw of animals that had undergone spinal nerve ligation was evaluated using von Frey filaments. […] Using the Dixons Up-Down method, a baseline level of allodynia was determined to have a withdrawal threshold of 3 g of pressure.
Rats were placed in groups labeled A-D with six rats per group. Group A was administered 1.0 mL/kg of vehicle (100% PEG400). […] Data are expressed as the percentage of maximal protective effect relative to the control (vehicle treated) animals.

Structure (SMILES)	EC50
N[C@H](C(=O)O)c1ccccc1 [(2S)-amino(phenyl)acetic acid]	50 µmol/kg
NCC1(CC(=O)O)CCCCC1 [Gabapentin]	160 µmol/kg

From US20050148671A1, “(2S)-amino(phenyl)acetic acid and derivatives as alpha2delta voltage-gated calcium channel ligands” (priority 2004, published 2005)
